Assay results taken from patent publication US20220354807A1, “USE OF VALERIC ACID DERIVATIVE IN TREATMENT OF DOWN'S SYNDROME” (XIAMEN UNIVERSITY, priority 2019, published 2022).

Assays:
[1] = Body weight after 21 days of administration; type: in vivo; settings: WT and Ts65Dn mice, 50 mg/(kg body weight/day) i.p.
Description: All of the used mice were 3-month-old male mice administered continuously for 21 days, and then weighed.
The mice were administered continuously for 21 days and then weighed.

Open-field test = type: in vivo, mice; settings: 50 mg/(kg body weight/day) i.p., 21 days, open field 10 minutes
Description: After 21 days of continuous administration, 3-month-old male mice were subjected to the behavioral open-field test. (A) Average movement speed of mice in the open field. (B) Total movement distance of mice in the open field. (C) Total time for the mice moving in the center of the open field.
After continuous administration for 21 days, the animal behavior test was performed, in which the open-field test is a behavioral paradigm for evaluating the exercise ability and anxiety of experimental animals. In the open-field test, mice were placed in the center of the open field box (40 cm (L)×40 cm (W)×40 cm (H)), and Smart Video Tracking Software (Panlab, Harvard Apparatus) was used for data acquisition and analysis. Mice were allowed to explore freely in the open field for 10 minutes, and the Mean speed, Total distance and Time in center of mice were recorded.

Down's model mice Ts65Dn [2] = test: Morris water maze test, Ts65Dn; type: in vivo; settings: 50 mg/(kg body weight/day) i.p., 21 days
Source text: (§1) After 21 days of continuous administration, 3-month-old male mice were subjected to the Morris water maze test. (A) The latency for the mice to reach the platform during the 6-day water maze hidden platform training. (B) The average speed of swimming for the mice in the water maze of the platform test on day 7. (C) The latency for the mice to reach the area where the platform is located for the first time in the platform test on day 7. (D) The number of times for which the mice shuttled in the area where the platform is located in the platform test on day 7. (E) The swimming trajectory for the mice in the platform test on day 7. […] The ns represents no significant difference, i.e., p>0.05, ** represents p<0.01, *** represents p<0.001, **** represents p<0.0001.
(§2) After continuous administration for 21 days, learning and memory related animal behavior test Morris water maze test was performed. Smart Video Tracking Software (Panlab, Harvard Apparatus) was used for data acquisition and analysis. The Morris water maze is a circular water tank with a diameter of 90 cm, a height of 35 cm, and a water depth of 30 cm. The water temperature was maintained at 22° C. Different markers were placed in the visual field of mice (pool wall), and four water entry points (E, S, W, N) were marked on the pool wall so that the maze was divided into four quadrants. A platform with a diameter of 6 cm was installed in the ES quadrant, so that the water surface was 1 cm higher than the platform. Mice were trained twice a day and put into the water from E, S, W and N entry points facing the wall of the pool, respectively. The movement trajectory of the mice was captured by a camera, and the time from entering the water to climbing up the platform was recorded, that is, Escape latency. The system set a test time of 60 seconds, and the system automatically shut down after the mice climbed on the platform and stay for 10 seconds. […] The positioning navigation experiment last for 6 days, and on day 7, the platform was removed. Mice were placed on the opposite side of the platform to the wall of the pool, and the space exploration experiment was carried out. The number of times of crossing in the original platform area (Target crossing) and the Latency of 1st entrance to target were recorded.

Down's model mice Dp16 [3] = test: Morris water maze test, Dp16; type: in vivo; settings: 30 mg/(kg body weight/day) intragastric, 21 days
Source text: as §1, with “p>0.05, * represents p<0.05,” for “p>0.05,”, “p<0.001.” for “p<0.001, **** represents p<0.0001.”
as §2, with “The” for “The positioning navigation experiment last for 6 days, and on day 7, the platform was removed. Mice were placed on the opposite side of the platform to the wall of the pool, and the space exploration experiment was carried out. The”, “recorded. […]” for “recorded.”

Down's model mice Ts65Dn [4] = test: LTP recording in brain slices (Schaffer collateral pathway CA3 to CA1); type: in vivo; settings: 50 mg/(kg body weight/day) i.p., 21 days
Description: After 21 days of continuous administration, electrophysiological studies on brain slice were performed. After anesthesia, the mice were incubated in an ice-cooled artificial cerebrospinal fluid (ACSF) with oxygen. After slicing, the brain slices were incubated in ACSF saturated with oxygen at 32° C. for 1 H. The recording electrode was placed in the radiation layer of CA1 area of Schaffer collateral pathway, and the stimulating electrode was placed in CA3 area. Stimulation intensity was 30% of the maximum value of fEPSP. After the stable baseline of fEPSP was recorded for 20 mins, LTP was induced by high frequency stimulation (HFS) (2 strings of stimulation, each of which contained 100 stimulation pulses, and was separated by 30 seconds) and recorded for 60 mins.

Down's model mice Ts65Dn [5] = test: Synapse number by transmission electron microscopy; type: in vivo; settings: 50 mg/(kg body weight/day) i.p., 21 days
Source text: (A) A representative image of a transmission electron micrograph. Arrows indicate synaptic structures, and the scale is 1 m. (B) Statistics result of the number of synapses. (C) Statistics result of the number of presynaptic vesicles. (D) statistical result of the length of postsynaptic density (PSD). (E) Statistical results of the area of postsynaptic density (PSD). Data represents the mean±standard error (SEM) and is statistically analyzed using One-way ANOVA, with 4 mice in each group, and 38-42 fields of view are statistically analyzed respectively. The ns represents no significant difference, i.e., p>0.05, * represents p<0.05.
[…] The pieces were fixed with pre-cooled, fresh 2.5% glutaraldehyde fixative at 4° C. for more than 4 hours. At the end of fixation, the pieces were washed with PBS for 15 min for three times, then dehydrated, sectioned and prepared, and finally the images are collected by transmission electron microscopy.

Down's model mice Ts65Dn [6] = test: Iba1 immunofluorescence of hippocampus (microgliosis), Ts65Dn; type: in vivo; settings: 50 mg/(kg body weight/day) i.p., 21 days
Source text: (§3) (A) A representative map of immunofluorescence labeled microglia marker Iba1 in the DG region of mice hippocampus, and the scale is 75 m. (B) Statistical results of Iba1 positive cells in mice hippocampus. Data represents the mean±standard error (SEM) and is statistically analyzed using One-way ANOVA, with 4 mice in each group. ** represents p<0.01 and *** represents p<0.001.
(§4) The microglia marker Iba1 and nuclear dye DAPI were respectively labeled by immunofluorescence staining, and then the images were collected by laser confocal fluorescence microscopy.

Down's model mice Dp16 [7] = test: Iba1 immunofluorescence of hippocampus (microgliosis), Dp16; type: in vivo; settings: 30 mg/(kg body weight/day) intragastric, 21 days
Source text: as §3, with “100” for “75”, “8” for “4”, “****” for “**”, “p<0.0001.” for “p<0.01 and *** represents p<0.001.”
as §4

Down's model mice Dp16 [8] = test: Iba1/CD68 immunofluorescence of hippocampus (microglial phagocytic function), Dp16; type: in vivo; settings: 30 mg/(kg body weight/day) intragastric, 21 days
Source text: (A) A representative map of immunofluorescence labeled microglia marker Iba1 and lysosomal phagocytosis marker CD68 in the region of mice hippocampus, and the scale is 50 m. (B) The statistical results of the proportion of Iba1-positive and CD68-positive cells in the total Iba1-positive cells in the mice hippocampus. Data represents the mean±standard error (SEM) and is statistically analyzed using One-way ANOVA, with 8 mice in each group. The ns represents no significant difference, i.e., p>0.05, *** represents p<0.001, **** represents p<0.0001.
The microglia marker Iba1 and lysosomal phagocytosis markers CD68 were respectively labeled by immunofluorescence staining, and then the images were collected by laser confocal fluorescence microscopy.

[9] = test system: primary microglia of Dp16 mice; test: Phagocytosis of myelin debris by primary microglia; type: cell-based; settings: 0.6 mM, myelin debris added at 45 hours, staining at 48 hours
Source text: (§5) (A) Representative images of immunofluorescence labeled microglia marker Iba1, nuclear dye DAPI and myelin sheath debris (pHrodo is pre-labeled on myelin sheath), and the scale is 20 m. (B) Statistics of fluorescence intensity of myelin sheath debris in each Iba1-positive cell. Data represents the mean±standard error (SEM) and is statistically analyzed using One-way ANOVA. The ns represents no significant difference, i.e., p>0.05, ** represents p<0.01, *** represents p<0.001, **** represents p<0.0001.
(§6) Newborn wild-type (WT) mice and Dp16 Down's model mice were placed on ice for 5 min, immersed in pre-cooled 75% alcohol for 10 s, decapitated and stripped of the skull, and the whole brain was removed and placed in pre-cooled HBSS. Under a stereoscope, the vascular membrane of brain tissue was stripped and cut into pieces with tweezers, repeatedly blown and beaten evenly with a 5 ml pipette tip, resuspended in precooled HBSS, and screened with a 100-mesh cell sieve to remove cell debris. […] The cells were resuspended and counted. […] Myelin debris (1.2 μg/L) were added at 45 hours, and immunofluorescence staining was performed at 48 hours to label microglia marker Iba1, nuclear dye DAPI and myelin debris (pHrodo was labeled on the myelin sheath in advance), respectively, and then images were collected by laser confocal fluorescence microscopy.

[10] = test system: primary microglia of Dp16 mice; test: Phagocytosis of fluorescent spheres by primary microglia; type: cell-based; settings: 0.6 mM, fluorescent spheres added at 45th hour, staining at 48th hour
Source text: as §5, with “fluorescent spheres,” for “myelin sheath debris (pHrodo is pre-labeled on myelin sheath),”, “10” for “20”, “fluorescent spheres” for “myelin sheath debris”, “p<0.01,” for “p<0.01, *** represents p<0.001,”
as §6, with “Fluorescent spheres (10000×, Fluoresbrite® microsphere)” for “Myelin debris (1.2 μg/L)”, “the 45th hour,” for “45 hours,”, “the 48th hour” for “48 hours”, “fluorescent spheres GFP,” for “myelin debris (pHrodo was labeled on the myelin sheath in advance),”

[11] = 50 mg/(kg body weight/day) i.p., 21 days, plasma
[12] = cited from earlier work
Alzheimer's disease mice = settings: by inhibiting the production of β-amyloid protein in the brain; cited from earlier work

With `CCCC(CCC)C(=O)O` [VPA, sodium valproate] the “body weight of mice” value [1] was “does not affect”, the “anxiety-related behaviors (Time in center)” value (Open-field test) was “do not show anxiety-related behaviors” and the “locomotor ability (Mean speed, Total distance)” value (Open-field test) was “no significant effects”. For the same molecule, the “Latency of 1st entrance to target, day 7” value (Down's model mice Ts65Dn [2]) was “reduces”, the “latency to search the platform (Escape latency), first 6 days of training” value (Down's model mice Ts65Dn [2]) was “significantly reduce” and the “number of times the mouse shuttled the area where the platform was located (Target crossing), day 7” value (Down's model mice Ts65Dn [2]) was “significantly increases”. The “spatial learning and memory deficits” value (Down's model mice Ts65Dn [2]) was “significantly reverse”, the “Latency of 1st entrance to target, day 7” value (Down's model mice Dp16 [3]) was “reduces” and the “number of times the mouse shuttled the area where the platform was located, day 7” value (Down's model mice Dp16 [3]) was “significantly increases”. For the same molecule, the “spatial learning and memory deficits” value (Down's model mice Dp16 [3]) was “significantly reverse”, the “Long term potentiation (LTP) of Schaffer collateral pathway from hippocampal CA3 to CA1” value (Down's model mice Ts65Dn [4]) was “significantly enhances” and the “number of synapses in the hippocampal neurons” value (Down's model mice Ts65Dn [5]) was “significantly increases”. The “number of microglia in the hippocampus (Iba1 positive cells)” value (Down's model mice Ts65Dn [6]) was “significantly reduces”, the “number of microglia in the hippocampus (Iba1 positive cells)” value (Down's model mice Dp16 [7]) was “significantly reduces” and the “phagocytic function of hippocampal microglial cells (Iba1-positive and CD68-positive cells)” value (Down's model mice Dp16 [8]) was “significantly enhances”. For the same molecule, the “phagocytic function of myelin debris by primary microglia” value [9] was “significantly enhances”, the “phagocytic function of fluorescent spheres by primary microglia” value [10] was “significantly enhances” and the “toxic effects on mice (blood biochemical analysis)” value [11] was “no significant toxic effects”. For the same molecule, the “binding to plasma proteins in blood” value ([12]; blood) was “mostly combined with plasma proteins”, the “absorption by oral administration” value ([12]; oral administration) was “absorbed rapidly and completely” and the “cognitive function of Alzheimer's disease mice” value (Alzheimer's disease mice) was “reverse the cognitive function”.
